{
  "source": "patent US20040241839A1",
  "about": "“Culturing neural stem cells” (priority 2003, published 2004)",
  "key": {"[1]": {"system": "dissociates of postnatal C57/BL mouse forebrain (neurospheres)", "test": "Formation and growth of neurospheres in serum-free semi-solid methylcellulose medium with growth factors", "type": "cell-based", "method": "Preparation of single-cell suspensions and cloning in MC. Dissociates of postnatal (5-7 days old) C57/BL mouse forebrain (subependymal zone and hippocampus) were used to generate suspended clones under anchorage and serum withdrawal in semi-solid methyl cellulose (MC). The procedures were performed as previously described Kukekov et al., Glia 21:399-407, 1997; and Kukekov et al., Exp Neurol, 156:333-344, 1999, with some additional modifications. Brain samples (approximately 10 mm^3) were minced, transferred to a beaker containing a solution of 0.25% trypsin in 0.1 mM EDTA (mixture 4:1), and slowly stirred on a magnetic plate at roomm temperature for 15 minutes. After trituration through a plastic 5 ml pipette and a fire-polished Pasteur pipette, the dissociate was washed (5-8 times in 5 ml of medium) to eliminate cellular debris.\nThe resultant suspension was filtered through sterile gauze, and verified to contain only single cells which were counted with a hemocytometer. Finally, cells were resuspended in 0.8% MC-based medium (NeuroCult medium, Cat. #03237, StemCell Technologies, Vancouver, BC) and plated at a clonal density (i.e., about […]) in 6-well plates coated with a non-adhesive substrate, i.e., poly 2-hydroxyethyl methacrylate (poly-HEME, Sigma) according to the manufacturer's instructions. Cells were maintained in a 37° C. incubator with 95% air, 5% CO2, and 100% humidity. Clones became visible under an inverted phase microscope approximately one week after plating.\nMorphometric analysis of neurospheres. The number and diameters of neurospheres was assessed using an inverted phase microscope equipped with a size covering net. The number of neurospheres in each experimental group was normalized to the protein content. Aliquots of suspensions were removed for protein measurement using Pierce BCA protein Kit (Pierce, Rockford, Ill.) according to the manufacturer's instructions. Measurements were taken following one, two and three weeks of growth in vitro.\nUsing the above-described methods, dissociates of postnatal(5-7 days old) C57/BL mouse forebrain, (subependymal zone and hippocampus) were used to generate suspended clones under anchorage and serum withdrawal in semi-solid MC (MC-clones) Equal amounts of dissociates were placed in serum-free DMEM/F12, 1:1 medium supplemented with 0.8% MC and insulin (NeuroCult medium, Cat. #03237, StemCell Technologies, Vancouver, BC) in the presence of (i) 10 ng/ml EGF plus 10 ng/ml FGF2, (ii) 10 μM LPA alone and (iii) EGF+FGF2 in combination with LPA. Growth factors, i.e., EGF, FGF2 were obtained from Peprotech, Inc., and LPA was obtained from LPA-Avanti Polar Lipids, Inc. Freshly prepared aliquots of EGF and FGF2 were added every 3 days during a 21 day interval of clone (neurosphere) generation. The numbers and diameters of neurospheres were measured at the end of the third week in vitro.\nUsing methods described above, cells were recovered after complete dissociation of mouse forebrain to single cells and plated at a density of ˜10^4 cells/well in serum free semi-solid methylcellulose medium containing growth factors, ie., 10 μM oleoyl (C18:1) LPA, or 10 ng/ml each of EGF and FGF2. […] Neurosphere growth persisted during the second week in semi-solid medium continuously supplemented with LPA or EGF+FGF2 (FIG. 1B)."}, "[2]": {"system": "neurospheres (AC133 and Sca-1 antigens)", "test": "Immunocytochemical staining of neurospheres grown in the presence of LPA", "type": "cell-based, mouse", "method": "Neurospheres were grown in suspension in the presence of LPA for 18 days, then transferred onto cover slips coated with laminin and poly-L-ornithine. The neurospheres attached within 6 hours and were allowed to spread and differentiate for an additional 48 hours. Cover slips were then fixed and processed for immunostaining. Antibodies used in these studies included antibodies against AC133 antigen (Miltenyi Biotech) and Sca-1 antigen (BD Pharmingen), against LPA receptors LPA1, LPA2 and LPA3 Exalpha Biologicals Inc., Antibody Solutions), βIII-tubulin (ovance, Inc.), and nestin (Chemicon, Inc.), CNPase (Sigma). To study the effect of LPA on differentiation of neurospheres, in some cases double immunostaining of LPA receptors and neuronal markers was performed. Results were analyzed using confocal microscopy. Visualization of the proteins was performed by two-color fluorescent dye labeling (i.e., red-Texas Red, green-Alexa Green) and subsequent analysis in laser confocal microscope appropriately equipped with filters of different wavelengths. The images were taken at the same gain setting for each filter within one experimental set. As an example, referring to FIG. 2A, B, the presence of AC133 antigen was detected by red fluorescence and that of Sca-1 by green fluorescence using separate wavelength visualization. AC133/Sca-1 co-localization was detected as yellow fluorescence using dual wavelength visualization (shown in right column of FIG. 2).\nNeurospheres were grown using methods described above in the presence of LPA in semi-solid medium for two weeks. Aliquots of neurospheres were then removed and placed onto glass cover slips coated with laminin/poly-L-ornithine. Fresh medium without methyl cellulose and FBS (10% final) were added to initiate neurosphere adherence to the cover slip surface. The neurospheres became completely attached within 4 to 6 hours after transfer. […]\nCover slips were then fixed, stained with antibodies against AC133, Sca-1, LPA1, LPA2 and LPA3 receptors and analyzed using immunofluorescent techniques, as described above. […]"}, "[3]": {"system": "LPA-induced formation of neurospheres", "conditions": "for size of neurospheres generated by LPA: 2 weeks (FIG. 1C); for numbers of neurospheres formed: 2 weeks (FIG. 1D)", "method": "In (C, D), neurospheres were maintained in culture for 2 weeks in the presence of LPA alone or LPA plus 1 μM or 50 μM DGPP. The number/field and the size of at least 200 neurospheres formed at 2 weeks were counted. The results are presented as mean +SEM of three independent experiments from four different neurosphere preparations. Unpaired Student's t-test was used to assess significance of the mean difference, and F test was used to compare variances.\nTo examine the potential involvement of LPA receptors in the LPA-induced formation of neurospheres, the effect of DGPP at low concentration (i.e., 1 μM) and high concentration (i.e., 50 μM) was compared."}, "LPA1 receptor": {"target": "LPA1 receptor (Homo sapiens, UniProt Q92633)", "sequence (Q92633 whole entry)": "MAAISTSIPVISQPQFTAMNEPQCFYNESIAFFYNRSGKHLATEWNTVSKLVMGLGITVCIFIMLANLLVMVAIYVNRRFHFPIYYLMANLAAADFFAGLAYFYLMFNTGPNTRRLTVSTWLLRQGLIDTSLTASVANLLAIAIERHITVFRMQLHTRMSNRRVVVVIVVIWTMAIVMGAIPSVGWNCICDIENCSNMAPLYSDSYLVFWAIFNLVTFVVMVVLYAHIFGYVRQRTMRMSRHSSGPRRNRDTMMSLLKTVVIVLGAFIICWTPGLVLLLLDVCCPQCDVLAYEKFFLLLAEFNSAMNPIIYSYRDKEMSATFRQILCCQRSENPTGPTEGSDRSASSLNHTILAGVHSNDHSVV", "conditions": "high concentration; cited from earlier work"}, "LPA3 receptor": {"target": "T1, LPA3 receptor (Homo sapiens, UniProt Q9UBY5)", "T1 sequence (Q9UBY5 1-353)": "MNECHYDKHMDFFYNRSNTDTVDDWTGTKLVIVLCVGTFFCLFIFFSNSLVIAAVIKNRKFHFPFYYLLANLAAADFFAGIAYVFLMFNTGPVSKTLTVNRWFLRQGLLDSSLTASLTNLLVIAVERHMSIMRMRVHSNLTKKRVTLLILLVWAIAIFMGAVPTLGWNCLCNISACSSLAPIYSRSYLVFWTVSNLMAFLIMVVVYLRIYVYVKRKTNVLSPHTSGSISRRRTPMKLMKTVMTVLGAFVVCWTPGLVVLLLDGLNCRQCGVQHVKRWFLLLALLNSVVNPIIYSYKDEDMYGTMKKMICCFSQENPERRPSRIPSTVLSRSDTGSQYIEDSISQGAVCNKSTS", "conditions": "cited from earlier work"}, "[4]": {"conditions": "10 μM LPA or 10 ng/ml each EGF and FGF2"}, "[5]": {"conditions": "grown two weeks in LPA, attached to cover slips"}},
  "note": "Where two headings read alike, the source gives them in different places.",
  "data": [
    {"molecule": "1 -acyl-2-hydroxy-sn-glycero-3-phosphate [LPA]", "values": [
      {"measurement": "diameter of neurospheres, Maximum", "setting": "[1]; [4]", "result": 204},
      {"measurement": "diameter of neurospheres, Median", "setting": "[1]; [4]", "result": 72.25},
      {"measurement": "diameter of neurospheres, Minimum", "setting": "[1]; [4]", "result": 14.1},
      {"measurement": "diameter of neurospheres, Mode", "setting": "[1]; [4]", "result": 55.4},
      {"measurement": "number of neurospheres per field (Count)", "setting": "[1]; [4]", "result": 220},
      {"measurement": "diameter of neurospheres, Mean", "setting": "[1]; 10 μM LPA or 10 ng/ml each EGF and FGF2, serum-free methylcellulose medium", "result": 79.54, "unit": "μm"},
      {"measurement": "time for which neurosphere development was sustained", "setting": "[1]; continuous supplementation with growth factor", "result": "up to 3 months"},
      {"measurement": "formation of neurospheres", "setting": "[1]; first week in culture, 10 μM oleoyl LPA or 10 ng/ml each EGF and FGF2", "result": "formed distinguishable neurospheres"},
      {"measurement": "Sca-1 antigen and AC133 in the residual core of neurospheres grown attached", "setting": "[2]; grown attached in the presence of the growth factor", "result": "still detected"},
      {"measurement": "co-localization of AC133 and Sca-1 throughout the neurospheres", "setting": "[2]; [5]", "result": "~100", "unit": "%"},
      {"measurement": "expression of AC133 and Sca-1 antigens in neurospheres", "setting": "[2]; [5]", "result": "expressed both AC133 and Sca-1 antigens"}
    ]},
    {"molecule": "CCCCCCCC(=O)OC[C@H](COP(=O)(O)OP(=O)(O)O)OC(=O)CCCCCCC", "note": "[DGPP, diacyl-glycerol pyrophosphate]", "values": [
      {"measurement": "size of neurospheres generated by LPA", "setting": "[3]; DGPP 1 μM plus LPA", "result": "significantly reduced"},
      {"measurement": "numbers of neurospheres formed", "setting": "[3]; DGPP 1 μM plus LPA", "result": "not"},
      {"measurement": "size of neurospheres generated by LPA", "setting": "[3]; DGPP 50 μM plus LPA", "result": "significantly reduced"},
      {"measurement": "numbers of neurospheres formed", "setting": "[3]; DGPP 50 μM plus LPA, p=0.0056", "result": "decreased considerably"},
      {"measurement": "LPA-induced formation and growth of neurospheres", "setting": "[3]; concentration not given", "result": "specifically inhibited"},
      {"measurement": "LPA activation of LPA1 receptor", "setting": "LPA1 receptor", "result": "blocks"},
      {"measurement": "LPA activation of LPA3 receptor", "setting": "LPA3 receptor; high concentration", "result": "blocks"},
      {"measurement": "effect on LPA3 receptor", "setting": "LPA3 receptor; low concentration", "result": "preferentially inhibit"}
    ]}
  ]
}
